# Results as given in publication PMC4117768, “Conjugation with polyamines enhances the antibacterial and anticancer activity of chloramphenicol” (Nucleic Acids Research, 2014).
# System: U937 (histiocytic lymphoma) cells
# Assay: Toxicity assay in leukemic cell line (cell counting)
# Type: cell-based, human
# Conditions: increasing concentrations
# Procedure: Human leukemic cell lines, HS-Sultan (Burkitt's lymphoma) (European Collection of Cell Cultures, Salisbury, UK), Jurkat (T-cell acute lymphoblastic leukemia) and U937 (histiocytic lymphoma) (American Type Culture Collection, Manassas, USA), were adjusted to 1 × 10^9 cells/l in RPMI-1640 medium containing 1% Penicillin/Streptomycin and 10% fetal bovine serum and grown in triplicate in the presence or absence of CAM or PA–CAM conjugates for 4 days at 37°C, under a humidified 5% CO2 atmosphere. The medium was changed after 2 days of exposure; CAM or PA-CAM addition was repeated after medium change to keep the appropriate drug concentration. Aliquots were collected daily and counted in a CELL-DYN 3700 Hematology Analyzer. For cell necrosis and apoptosis assays, samples (10^6 cells) were collected daily and determined using the Annexin V-PE Apoptosis Detection Kit I (BD Pharmingen) for flow cytometry ([29]), as described by the manufacturer. Flow cytometry data were analyzed using the FlowJo flow cytometry analysis software. Necrotic and apoptotic cells were expressed as a percentage of total cells.
# Figure S2. Toxicity assays in leukemic cell lines. […] Aliquots were collected daily and counted in a CELL-DYN 3700 Hematology Analyzer.
smiles,measurement,value
NCCCN(CCCCN(Cc1ccccc1)Cc1ccccc1)C(=O)CCC(=O)N[C@H](CO)[C@H](O)c1ccc([N+](=O)[O-])cc1 [Compound 4],sensitivity of cells (cell counting),insensitive
